# Measurements as given in paper PMC13031153 (Acta Pharmaceutica Sinica. B, 2025).
# Like-named read-outs stand apart in the source and are kept apart here.
# Key:
# hκ-OR = settings: cited from earlier work
# mμ-OR mutants = assay type: cell-based, mouse; settings: mμ-OR mutations at D^3.32, Y^3.33, V^5.43, I^6.51 (Fig. 5J)
# [1] = test system: WT mδ-OR, mδ-OR-Q190^ECL2H, mδ-OR-Q201^ECL2H, mδ-OR-S45^N-terminalH, mδ-OR-E112^ECL1H; assay type: cell-based, mouse
# mδ-OR mutants = assay type: cell-based, mouse
# μ-OR over δ-OR = settings: cited from earlier work
# δ/μ^N-terminal Chimera = assay type: cell-based, mouse
# mδ-OR and its variants = test: Maximal K+ current density evoked by saturating full agonist, mδ-OR variants; assay type: cell-based, mouse
# δ-OR = settings: cited from earlier work
# [2] = target: mδ-OR-K108^2.63N-L125^3.29I-R291^ECL3A (mouse) (UniProt P32300); test: MST
# mδ-OR-R291^ECL3A (mouse) = mδ-OR-R291^ECL3A (mouse) (UniProt P32300); test: MST
# [3] = target: mouse δ-opioid receptor, wild type (mouse) (UniProt P32300); test: MST
# mδ-OR-K108^2.63N (mouse) = mδ-OR-K108^2.63N (mouse) (UniProt P32300); test: MST
# mδ-OR-R292^ECL3E (mouse) = mδ-OR-R292^ECL3E (mouse) (UniProt P32300); test: MST
# [4] = target: mδ-OR-3M-PSA(28–30)-LGG (mouse) (UniProt P32300); test: MST
molecule,measurement,setting,value
CC(C)[C@@H](CN1CC[C@@](C)(c2cccc(O)c2)[C@@H](C)C1)NC(=O)[C@H]1Cc2ccc(O)cc2CN1 [JDTic],selectivity for hκ-OR,hκ-OR,more than 1000 fold
CN1CC[C@]23c4c5ccc(O)c4O[C@H]2[C@@H](O)C=C[C@H]3[C@H]1C5 [morphine],agonist-induced activation of mutants,mμ-OR mutants,significant reductions
same,effect of ZnCl2 on agonist activation (control),"[1]; 1 mmol/L ZnCl2, WT mδ-OR, mδ-OR-Q190^ECL2H, mδ-OR-Q201^ECL2H",did not alter
same,effect of ZnCl2 on agonist activation (control),"[1]; 3 mmol/L ZnCl2, mδ-OR-S45^N-terminalH, mδ-OR-E112^ECL1H",did not alter
same,change in potency for mδ-OR,mδ-OR mutants; mutations of K108^2.63 to Ala or Asn,increased the potency
same,agonist-induced activation of mutants,"mδ-OR mutants; mδ-OR mutations at D^3.32, Y^3.33, V^5.43, I^6.51 (Fig. 5H)",significant reductions
CC[C@H](C)[C@H](NC(=O)[C@H](C)NC(=O)[C@H](CC(N)=O)NC(=O)[C@H](CCCCN)NC(=O)[C@H](Cc1ccccc1)NC(=O)[C@H](CC(C)C)NC(=O)[C@@H](NC(=O)[C@@H](NC(=O)[C@H](CC(C)C)NC(=O)[C@@H]1CCCN1C(=O)[C@@H](NC(=O)[C@H](CCC(N)=O)NC(=O)[C@H](CO)NC(=O)[C@H](CCCCN)NC(=O)[C@H](CCC(=O)O)NC(=O)[C@H](CO)NC(=O)[C@@H](NC(=O)[C@H](CCSC)NC(=O)[C@H](Cc1ccccc1)NC(=O)CNC(=O)CNC(=O)[C@@H](N)Cc1ccc(O)cc1)[C@@H](C)O)[C@@H](C)O)C(C)C)[C@@H](C)O)C(=O)N[C@H](C(=O)N[C@@H](CCCCN)C(=O)N[C@@H](CC(N)=O)C(=O)N[C@@H](C)C(=O)N[C@@H](Cc1ccc(O)cc1)C(=O)N[C@@H](CCCCN)C(=O)N[C@@H](CCCCN)C(=O)NCC(=O)N[C@@H](CCC(=O)O)C(=O)O)[C@@H](C)CC [β-endorphin],preference between μ-OR and δ-OR,μ-OR over δ-OR,no discernible preference
same,EC50,δ/μ^N-terminal Chimera,10.3 ± 0.9 nM
Leu-enkephalin,maximum currents vs wild-type receptor,mδ-OR and its variants,statistically indistinguishable from wild-type receptor
deltorphin,selectivity for δ-OR,δ-OR,more than 1000 fold
endomorphin-1 (peptide),Kd,[2],9.42 nM
same,Kd,mδ-OR-R291^ECL3A (mouse),344 nM
same,Kd,[3],2940 nM
same,Kd,mδ-OR-K108^2.63N (mouse),299 nM
same,Kd,mδ-OR-R292^ECL3E (mouse),408 nM
same,Kd,[4],1.03 nM
endomorphin-2 [EM-2],μ-OR selectivity over δ-OR,μ-OR over δ-OR,> 1500 fold
